From patent publication US4464385A, “Treatment of diabetic complications with hydantoins” (Alcon Laboratories, Inc., priority 1982, dated 1984)

Tested on: cataracts in rats
Test: Prevention or retardation of cataracts in galactose-fed rats
Assay type: in vivo, rat
Conditions: for suppression of the formation of nuclear cataracts: 30 days; for % of Total Eyes, + (vacuole) / % of Total Eyes, - (Normal) / % of Total Eyes, N (nuclear cataract) / % of Total Eyes, S (snowflake) / Number of Eyes Observed, + (vacuole) / Number of Eyes Observed, - (Normal) / Number of Eyes Observed, N (nuclear cataract) / Number of Eyes Observed, S (snowflake) / Number of Eyes Observed, ±: 30% galactose diet, A,C,E 0.0025%, B,D 0.01%
Method in brief: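 Rats given test compound mixed into diet (by % of total feed weight; 0.01% designed to supply 20 mg/kg/day) ad libitum for thirty days after a two-day chow acclimatization, twelve animals per treatment. Eyes examined by handheld ophthalmoscope and/or penlight and each eye graded.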

C[S+]([O-])c1ccc2c(c1)C1(CCO2)NC(=O)NC1=O (stereo not drawn) [D, spiro-(6-methylsulfinylchroman-4,4'-imidazolidine)-2',5'-dione]
suppression of the formation of nuclear cataracts (0.0025% in diet): greater than 80%
time to vacuole formation, versus galactose control (0.01% in diet): different (p<0.05) from control
suppression of the formation of nuclear cataracts (0.01% in diet): greater than 80%
% of Total Eyes, + (vacuole) (Study Day 2): 0%
% of Total Eyes, - (Normal) (Study Day 2): 100.0%
% of Total Eyes, N (nuclear cataract) (Study Day 2): 0%
% of Total Eyes, S (snowflake) (Study Day 2): 0%
Number of Eyes Observed, + (vacuole) (Study Day 2): 0 eyes
Number of Eyes Observed, - (Normal) (Study Day 2): 24 eyes
Number of Eyes Observed, N (nuclear cataract) (Study Day 2): 0 eyes
Number of Eyes Observed, S (snowflake) (Study Day 2): 0 eyes
Number of Eyes Observed, ± (Study Day 2): 0 eyes
% of Total Eyes, + (vacuole) (Study Day 3): 0%
% of Total Eyes, - (Normal) (Study Day 3): 91.7%
% of Total Eyes, N (nuclear cataract) (Study Day 3): 0%
% of Total Eyes, S (snowflake) (Study Day 3): 0%
Number of Eyes Observed, + (vacuole) (Study Day 3): 0 eyes
Number of Eyes Observed, - (Normal) (Study Day 3): 22 eyes
Number of Eyes Observed, N (nuclear cataract) (Study Day 3): 0 eyes
Number of Eyes Observed, S (snowflake) (Study Day 3): 0 eyes
Number of Eyes Observed, ± (Study Day 3): 2 eyes
% of Total Eyes, + (vacuole) (Study Day 4): 16.7%
% of Total Eyes, - (Normal) (Study Day 4): 75.0%
% of Total Eyes, N (nuclear cataract) (Study Day 4): 0%
% of Total Eyes, S (snowflake) (Study Day 4): 0%
Number of Eyes Observed, + (vacuole) (Study Day 4): 4 eyes
Number of Eyes Observed, - (Normal) (Study Day 4): 18 eyes
Number of Eyes Observed, N (nuclear cataract) (Study Day 4): 0 eyes
Number of Eyes Observed, S (snowflake) (Study Day 4): 0 eyes
Number of Eyes Observed, ± (Study Day 4): 2 eyes
% of Total Eyes, + (vacuole) (Study Day 5): 33.3%
% of Total Eyes, - (Normal) (Study Day 5): 33.3%
% of Total Eyes, N (nuclear cataract) (Study Day 5): 0%
% of Total Eyes, S (snowflake) (Study Day 5): 0%
Number of Eyes Observed, + (vacuole) (Study Day 5): 8 eyes
Number of Eyes Observed, - (Normal) (Study Day 5): 8 eyes
Number of Eyes Observed, N (nuclear cataract) (Study Day 5): 0 eyes
Number of Eyes Observed, S (snowflake) (Study Day 5): 0 eyes
Number of Eyes Observed, ± (Study Day 5): 8 eyes
% of Total Eyes, + (vacuole) (Study Day 6): 41.6%
% of Total Eyes, - (Normal) (Study Day 6): 25.0%
% of Total Eyes, N (nuclear cataract) (Study Day 6): 0%
% of Total Eyes, S (snowflake) (Study Day 6): 0%
Number of Eyes Observed, + (vacuole) (Study Day 6): 10 eyes
Number of Eyes Observed, - (Normal) (Study Day 6): 6 eyes
Number of Eyes Observed, N (nuclear cataract) (Study Day 6): 0 eyes
Number of Eyes Observed, S (snowflake) (Study Day 6): 0 eyes
Number of Eyes Observed, ± (Study Day 6): 8 eyes
% of Total Eyes, + (vacuole) (Study Day 8): 50.0%
% of Total Eyes, - (Normal) (Study Day 8): 16.7%
% of Total Eyes, N (nuclear cataract) (Study Day 8): 0%
% of Total Eyes, S (snowflake) (Study Day 8): 8.3%
Number of Eyes Observed, + (vacuole) (Study Day 8): 12 eyes
Number of Eyes Observed, - (Normal) (Study Day 8): 4 eyes
Number of Eyes Observed, N (nuclear cataract) (Study Day 8): 0 eyes
Number of Eyes Observed, S (snowflake) (Study Day 8): 2 eyes
Number of Eyes Observed, ± (Study Day 8): 6 eyes
% of Total Eyes, + (vacuole) (Study Day 10): 58.4%
% of Total Eyes, - (Normal) (Study Day 10): 8.3%
% of Total Eyes, N (nuclear cataract) (Study Day 10): 0%
% of Total Eyes, S (snowflake) (Study Day 10): 16.7%
Number of Eyes Observed, + (vacuole) (Study Day 10): 14 eyes
Number of Eyes Observed, - (Normal) (Study Day 10): 2 eyes
Number of Eyes Observed, N (nuclear cataract) (Study Day 10): 0 eyes
Number of Eyes Observed, S (snowflake) (Study Day 10): 4 eyes
Number of Eyes Observed, ± (Study Day 10): 4 eyes
% of Total Eyes, + (vacuole) (Study Day 12): 62.5%
% of Total Eyes, - (Normal) (Study Day 12): 0%
% of Total Eyes, N (nuclear cataract) (Study Day 12): 0%
% of Total Eyes, S (snowflake) (Study Day 12): 20.8%
Number of Eyes Observed, + (vacuole) (Study Day 12): 15 eyes
Number of Eyes Observed, - (Normal) (Study Day 12): 0 eyes
Number of Eyes Observed, N (nuclear cataract) (Study Day 12): 0 eyes
Number of Eyes Observed, S (snowflake) (Study Day 12): 5 eyes
Number of Eyes Observed, ± (Study Day 12): 4 eyes
% of Total Eyes, + (vacuole) (Study Day 14): 62.5%
% of Total Eyes, - (Normal) (Study Day 14): 0%
% of Total Eyes, N (nuclear cataract) (Study Day 14): 0%
